Results taken from patent US10544156B2, “Hemi-synthetic trilobine analogs for use as a drug” (PIERRE FABRE MEDICAMENT, priority 2015, dated 2020).
Read-outs that look alike come from different tables or passages of the source.

Columns and labels:
[1] = target: T1, human C-terminal DNMT3A (623-908a.a.) (Homo sapiens, UniProt Q9Y6K1); assay: hDNMT3A assay (restriction-based fluorescence assay); format: biochemical; details: for inhibition at 10 µM: read-out: hDNMT 3A inhibition, Inhibition (%) 10 μM; for inhibition at 32 µM: read-out: hDNMT 3A inhibition, Inhibition (%) 32 μM
T1 construct: The human C-terminal DNMT3A (623-908a.a.); made in house
T1 sequence (Q9Y6K1 627-912 limits assumed): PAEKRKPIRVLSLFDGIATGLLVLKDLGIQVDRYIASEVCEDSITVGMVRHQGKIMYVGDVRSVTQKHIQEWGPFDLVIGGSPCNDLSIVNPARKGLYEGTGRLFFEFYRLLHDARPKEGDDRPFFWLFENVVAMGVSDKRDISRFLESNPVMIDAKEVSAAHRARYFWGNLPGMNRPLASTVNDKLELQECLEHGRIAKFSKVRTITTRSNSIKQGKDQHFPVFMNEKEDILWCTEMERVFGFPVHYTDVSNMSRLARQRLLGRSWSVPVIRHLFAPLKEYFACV
Excerpt: hDNMT3A enzyme inhibition was adapted from the restriction-based fluorescence assay protocol as described in the literature (Ceccaldi et al. Chem Bio Chem 2011, 12, 1337-1345). Briefly, a 5′-labelled biotin oligonucleotide is hybridized to its complementary strand labelled with 6-carboxyfluorescein at the 3′-end into a 384 well microplate (black Optiplates; Perkin Elmer) pre-coated with avidin. The duplex contains a unique CpG site overlapping with a restriction site of a methylation sensitive restriction enzyme. The human C-terminal DNMT3A (623-908a.a.), produced as described in (Gros et al. Nucl. Acids Res. 2013, 41(19):e185), was added in each well (200 ng/well) and mixed with the chemical compounds at desired concentrations and freshly prepared SAM (20 μM final concentration) to start the reaction in a total volume of 50 μL. After 1 hour incubation at 37° C. each well were washed three times with PBS, Tween-20 0.05%, NaCl (500 mM) and three more times with PBST. Specific fluorescent signals were detected with the methylation-sensitive restriction enzyme HpyCH4IV (NEB) as described and measured on a Perkin Elmer Envision detector. The percentage of inhibition is reported. The formula used to calculate the percentage of inhibition is [(X−Y)/X]×100, where X is the signal determined in the absence of the inhibitor and Y is the signal obtained in the presence of the inhibitor. The concentration at which 50% of efficacy of inhibition is observed (EC50) was determined by analysis of a concentration range of the tested compound in triplicates. The non-linear regression fittings with sigmoidal dose-response (variable slope) were performed with GraphPad Prism 4.03 (GraphPad Software).

[2] = tested on: CMV promoter in KG-1-Luc cells; assay: CMV promoter analysis by NOMe-Seq (CpG methylation and chromatin accessibility); format: cell-based, human; details: at 5 μM, 24 h; for DNA demethylation, KG1 CMV-Luc model: methylated cytosine treated vs non treated; for Chromatin accessibility, KG1 CMV-Luc model: ratio of GpC methylation
Protocol: Using the Nucleosome Occupancy and Methylome Sequencing (NOMe-Seq) technique, the methylation status of the CMV promoter and the position of the nucleosomes on such promoter were both analysed.
NOMe-seq is a modified version of the methylation-dependent single promoter assay described by Miranda et al. (Curr Protoc Mol Biol. 2010 21.17.1-16) and the methylase-based DNA assay was performed as previously described with minor modifications. After nuclei extraction, GpC DNA methyltransferase M.CviPI (New England Biolabs) reactions were done in M.CviPI reaction buffer. GpC methyltransferase treatment was followed by DNA extraction, sodium bisulfite conversion, PCR amplification of the region of interest, cloning, and sequencing of individual clones to reveal the structure of single replicas as functional units. After treatment with the compounds or with DMSO, KG-1-Luc cells were centrifuged for 5 min at 500×g. Cell pellets were washed in ice-cold PBS, resuspended in 1 mL of ice-cold nuclei buffer [10 mM Tris (pH 7.4), 10 mM NaCl, 3 mM MgCl2, 0.1 mM EDTA, and 0.5% Nonidet P-40, plus protease inhibitors] per 2×10^6 cells, and incubated on ice for 10 min. Nuclei were recovered by centrifugation at 900×g for 5 min, washed twice in nuclei wash buffer [10 mM Tris (pH 7.4), 10 mM NaCl, […], and 0.1 mM EDTA containing protease inhibitors], and resuspended with 200 μL in 1×M.CviPI reaction buffer supplemented with 0.3 M sucrose, 160 μM SAM (New England Biolabs). 100 μL of purified genomic DNA were treated with 100 U of M.CviPI for 15 min at 37° C. in 200 μL final volume. The other part of 100 μL of purified genomic DNA were not treated with 100 U of M.CviPI but just incubated for 15 min at 37° C. to obtain CpG methylation profile. Reactions were stopped by the addition of an equal volume of stop solution [20 mM Tris.HCl (pH 7.9), 600 mM NaCl, 1% SDS, 10 mM EDTA, and 400 μg/mL Proteinase K] and incubated at 55° C. overnight. DNA was purified by phenol/chloroform extraction and ethanol precipitation. Bisulfite conversion was performed with the EZ DNA Methylation-Gold Kit (Zymo Research). Bisulfited DNA was eluted with 12 μL of water and 8 μL were used for CMV amplification.
The CMV promoter DNA amplification was carried on 8.3 μL eluted bisulfited DNA in 20 μL PCR reaction containing 1×KAPA2G Buffer A, 2.0 mM MgCl2, 200 μM dNTPs, 125 nM each primer and 1.0 units KAPA2G™ Robust HotStart DNA Polymerase (KapaBiosystems) on C1000 Touch™ thermal cycler 95° C. 3 min following by 95° C. for 20 sec, 55° C. for 30 sec, 72° C. for 30 sec×40 cycles and final extension at 72° C. 1 min. PCR fragments were quality controlled by agarose gel electrophoresis.
Steps of cloning and sequencing were as those described previously except that M13 PCR was used to amplify the cloned sequence in 20 μL PCR reaction volume containing 1×KAPA2G Buffer B, 2.0 mM MgCl2, 200 μM dNTPs, 125 nM each primer and 1.0 U KAPA2G™ Robust HotStart DNA Polymerase (KapaBiosystems) on C1000 Touch™ thermal cycler 95° C. 3 min following by 95° C. for 20 sec, 55° C. for 30 sec, 72° C. for 30 sec×40 cycles and final extension at 72° C. 1 min.
Genomic alignment and bisulfite sequence analysis was performed largely as previously described (Berman et al. Nat Genet 2012, 44, 40-6).
BISMA (Bisulfite Sequencing DNA Methylation Analysis) software was used for CpG methylation analysis of primary bisulfite sequencing data from subcloned individual molecules (Rohde et al. BMC Bioinformatics 2010, 11, 230). Methyl Viewer (Pardo et al. Nucleic Acids Res 2011, 39, e5) was used to obtain GC methylation results and nucleosome occupancy. The ratio of methylation is representative of the chromatin accessibility by M.CviPI and nucleosome occupancy. The combined methylation status for each clone by CpG (BISMA) or GpC (Methyl Viewer) site has been assembled. […]

[3] = concentration at which 50% of efficacy of inhibition is observed, read-out: EC50 (μM), hDNMT 3A inhibition
[4] = interval line below the EC50 of the same compound, read-out: EC50 (μM), range given

Row | Structure (SMILES) | EC50 [1, 3] [µM] | EC50 [1, 4] [µM] | inhibition at 10 µM [1] [%] | inhibition at 32 µM [1] [%] | DNA demethylation, KG1 CMV-Luc model [2] [%] | Chromatin accessibility, KG1 CMV-Luc model [2]
1 | CNC(=O)N1CCc2cc(OC)c3c4c2[C@@H]1Cc1ccc(cc1)Oc1cc(ccc1OC)C[C@H]1c2cc(c(cc2CCN1C)O3)O4 [Product 44] | 3.96 | 3.04 to 5.17 | 82 | 96 | −53 ± 6 | 2.3 ± 0.2
2 | COc1ccc2cc1Oc1ccc(cc1)C[C@@H]1NCCc3cc(OC)c4c(c31)Oc1cc3c(cc1O4)CCN(C)[C@H]3C2 [Trilobine (1), trilobine] | 3.8 | 3.21 to 4.49 | 88 | 96 | −37 ± 8 | 1.9 ± 0.1
3 | CCN(CC)CCCNC(=S)N1CCc2cc3c4cc2[C@@H]1Cc1ccc(OC)c(c1)Oc1ccc(cc1)C[C@H]1c2c(cc(OC)c(c2O4)O3)CCN1C(=S)NCCCN(CC)CC [Product 41] | 0.557 to 0.91 |  | 94 | 95 | 0 | 2.1 ± 0.1
